The source made the active and inactive calls. No cut-off for these calls is given here.
Columns and labels:
[1] = system: Mus musculus; assay: Antagonist activity at mesolimbic dopaminergic D2 receptor in Swiss albino Mus musculus (mouse) assessed as inhibition of apomorphine-induced cage climbing behavior at 10 mg/kg, ip administered 1 hr prior to apomorphine challenge measured after 30 min relative to vehicle-treated control; assay type: functional; settings: route intraperitoneal
[2] = system: Mus musculus; assay: In vivo inhibition of dopaminergic D2 receptor in Swiss albino Mus musculus (mouse) at 10 mg/kg, ip relative to vehicle-treated control; assay type: functional; settings: route intraperitoneal
[3] = system: Mus musculus; assay: Antagonist activity at mesolimbic dopaminergic D2 receptor in Swiss albino Mus musculus (mouse) assessed as inhibition of apomorphine-induced cage climbing behavior at 10 mg/kg, ip administered 1 hr prior to apomorphine challenge measured after 20 min relative to vehicle-treated control; assay type: functional; settings: route intraperitoneal
[4] = system: Mus musculus; assay: Antagonist activity at central serotonergic 5-HT2A receptor in Swiss albino Mus musculus (mouse) assessed as inhibition of quipazine meleate-induced head twiches at 10 mg/kg, ip administered 1 hr prior to quipazine meleate challenge measured after 30 to 40 min relative to vehicle-treated control; assay type: functional; settings: route intraperitoneal
[5] = system: Mus musculus; assay: In vivo inhibition of 5-HT2A receptor in Swiss albino Mus musculus (mouse) at 10 mg/kg, ip relative to vehicle-treated control; assay type: functional; settings: route intraperitoneal
[6] = biological target: D(2) dopamine receptor (Rattus norvegicus) (UniProt P61169); assay: Displacement of [3H]spiperone from D2 receptor in Rattus norvegicus (rat) straitum membrane homogenates at 10 uM after 60 min by liquid scintillation counting analysis
Sequence of D(2) dopamine receptor (Rattus norvegicus) (P61169 whole entry): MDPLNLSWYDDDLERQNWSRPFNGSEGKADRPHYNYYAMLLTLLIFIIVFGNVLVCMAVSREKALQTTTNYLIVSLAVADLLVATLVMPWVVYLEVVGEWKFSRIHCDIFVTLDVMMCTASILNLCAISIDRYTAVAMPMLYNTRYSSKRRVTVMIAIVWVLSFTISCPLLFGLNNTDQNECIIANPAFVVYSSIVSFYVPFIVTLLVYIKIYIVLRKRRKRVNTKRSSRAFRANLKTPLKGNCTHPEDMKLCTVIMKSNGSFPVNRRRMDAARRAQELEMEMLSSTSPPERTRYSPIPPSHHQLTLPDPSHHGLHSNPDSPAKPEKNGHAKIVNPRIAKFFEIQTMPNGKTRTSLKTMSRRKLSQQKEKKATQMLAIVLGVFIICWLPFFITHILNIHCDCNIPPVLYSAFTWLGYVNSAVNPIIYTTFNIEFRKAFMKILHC

[7] = biological target: 5-hydroxytryptamine receptor 2A (Rattus norvegicus) (UniProt P14842); assay: Displacement of [3H]ketanserin from 5-HT2A receptor in Rattus norvegicus (rat) cortex membrane homogenates at 10 uM after 90 min by liquid scintillation counting analysis
Sequence of 5-hydroxytryptamine receptor 2A (Rattus norvegicus) (P14842 whole entry): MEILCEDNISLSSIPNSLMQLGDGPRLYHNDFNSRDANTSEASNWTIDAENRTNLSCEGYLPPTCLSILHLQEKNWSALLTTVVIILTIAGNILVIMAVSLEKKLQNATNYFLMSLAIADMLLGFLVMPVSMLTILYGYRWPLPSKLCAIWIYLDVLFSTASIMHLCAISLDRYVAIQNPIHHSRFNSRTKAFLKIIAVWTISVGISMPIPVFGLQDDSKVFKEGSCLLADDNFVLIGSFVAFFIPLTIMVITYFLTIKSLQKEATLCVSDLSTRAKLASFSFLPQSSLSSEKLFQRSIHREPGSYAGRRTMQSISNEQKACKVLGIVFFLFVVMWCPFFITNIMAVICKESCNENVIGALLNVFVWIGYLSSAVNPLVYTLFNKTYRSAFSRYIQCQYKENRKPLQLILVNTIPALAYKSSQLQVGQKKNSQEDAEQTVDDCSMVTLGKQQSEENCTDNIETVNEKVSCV

[8] = biological target: D(2) dopamine receptor (Rattus norvegicus) (UniProt P61169); assay: Displacement of [3H]spiperone from D2 receptor in Rattus norvegicus (rat) straitum membrane homogenates at 100 uM after 60 min by liquid scintillation counting analysis
[9] = system: Mus musculus; assay: Selectivity ratio of inhibition of 5-HT2A receptor in Swiss albino Mus musculus (mouse) to inhibition of dopaminergic D2 receptor in Swiss albino Mus musculus (mouse) at 10 mg/kg, ip; assay type: functional; settings: route intraperitoneal
[10] = biological target: 5-hydroxytryptamine receptor 2A (Rattus norvegicus) (UniProt P14842); assay: Displacement of [3H]ketanserin from 5-HT2A receptor in Rattus norvegicus (rat) cortex membrane homogenates up to 1 uM after 90 min by liquid scintillation counting analysis
[11] = system: Mus musculus; assay: Antagonist activity at nigrostriatal dopaminergic D2 receptor in Swiss albino Mus musculus (mouse) assessed as maximum average cataleptic time at 10 mg/kg, ip after 1 to 5 hr relative to vehicle-treated control; assay type: organism-based; set-up: dose 10 mg/kg, route intraperitoneal; settings: in vivo
[12] = biological target: D(2) dopamine receptor (Rattus norvegicus) (UniProt P61169); assay: Displacement of [3H]spiperone from dopaminergic D2 receptor in Rattus norvegicus (rat) straitum membrane homogenates up to 1 uM after 60 min by liquid scintillation counting analysis
[13] = system: Mus musculus; assay: Antagonist activity at mesolimbic dopaminergic D2 receptor in Swiss albino Mus musculus (mouse) assessed as inhibition of apomorphine-induced cage climbing behavior at 10 mg/kg, ip administered 1 hr prior to apomorphine challenge measured after 10 min relative to vehicle-treated control; assay type: functional; settings: route intraperitoneal
[14] = system: Mus musculus; assay: Antagonist activity at mesolimbic dopaminergic D2 receptor in Swiss albino Mus musculus (mouse) assessed as inhibition of apomorphine-induced cage climbing behavior at 0.6 mg/kg, ip administered 1 hr prior to apomorphine challenge measured after 10 min relative to vehicle-treated control; assay type: functional; settings: route intraperitoneal
[15] = system: Mus musculus; assay: Antagonist activity at central serotonergic 5-HT2A receptor in Swiss albino Mus musculus (mouse) assessed as inhibition of quipazine meleate-induced head twiches at 0.6 mg/kg, ip administered 1 hr prior to quipazine meleate challenge measured after 30 to 40 min relative to vehicle-treated control; assay type: functional; settings: route intraperitoneal
[16] = system: Mus musculus; assay: Antagonist activity at nigrostriatal dopaminergic D2 receptor in Swiss albino Mus musculus (mouse) assessed as maximum average cataleptic time at 0.6 mg/kg, ip after 1 to 5 hr relative to vehicle-treated control; assay type: organism-based; set-up: dose 0.6 mg/kg, route intraperitoneal; settings: in vivo
[17] = system: Mus musculus; assay: Antagonist activity at mesolimbic dopaminergic D2 receptor in Swiss albino Mus musculus (mouse) assessed as inhibition of apomorphine-induced cage climbing behavior at 0.6 mg/kg, ip administered 1 hr prior to apomorphine challenge measured after 20 min relative to vehicle-treated control; assay type: functional; settings: route intraperitoneal
[18] = system: Mus musculus; assay: Antagonist activity at mesolimbic dopaminergic D2 receptor in Swiss albino Mus musculus (mouse) assessed as inhibition of apomorphine-induced cage climbing behavior at 0.6 mg/kg, ip administered 1 hr prior to apomorphine challenge measured after 30 min relative to vehicle-treated control; assay type: functional; settings: route intraperitoneal

| Compound | inhibition in vivo at 10 mg/kg [1] | Imax [2] | inhibition in vivo at 10 mg/kg [3] | inhibition in vivo at 10 mg/kg [4] | inhibition in vivo at 10 mg/kg [5] | inhibition [6] | inhibition [7] | inhibition [8] | Selectivity ratio [9] | inhibition [10] | Time [11] | inhibition [12] | inhibition in vivo at 10 mg/kg [13] | inhibition in vivo at 0.6 mg/kg [14] | inhibition in vivo at 0.6 mg/kg [15] | Time [16] | inhibition in vivo at 0.6 mg/kg [17] | inhibition in vivo at 0.6 mg/kg [18] |
| --- | --- | --- | --- | --- | --- | --- | --- | --- | --- | --- | --- | --- | --- | --- | --- | --- | --- | --- |
| Nc1nc(-c2ccc(CCN3CCN(c4cnc5ccccc5n4)CC3)cc2)cs1 | 65% | 75% | 75% | 15% | 15% | inactive | 51% | 26% | 0.2 | inactive | 9.21 s | inactive | 60% |  |  |  |  |  |
| Cc1nc(-c2ccc(CCN3CCN(c4cnc5ccccc5n4)CC3)cc2)cs1 | 85% | 85% | 55% | 77% | 77% | inactive | 63% | 30% | 0.9059 | inactive | 5.17 s | inactive | 75% |  |  |  |  |  |
| COc1nc2ccccc2nc1N1CCN(CCc2ccc(-c3csc(N)n3)cc2)CC1 | 65% | 65% | 60% | 12% | 12% | inactive | 49% | 24% | 0.1846 | inactive | 14.12 s | inactive | 60% |  |  |  |  |  |
| Cc1nc2n(c(=O)c1CCN1CCC(c3noc4cc(F)ccc34)CC1)CCCC2 [RISPERIDONE] |  | 91% |  |  | 100% |  |  |  | 1.0989 |  |  |  |  | 91% | 100% | 2.54 s | 91% | 90% |
| COc1nc2ccccc2nc1N1CCN(CCc2ccc(-c3csc(C)n3)cc2)CC1 | 65% | 85% | 70% | 62% | 62% | inactive | 68% | 82% | 0.7294 | inactive | 6.25 s | inactive | 85% |  |  |  |  |  |
| CNc1nc(-c2ccc(CCN3CCN(c4nc5ccccc5nc4OC)CC3)cc2)cs1 | 65% | 85% | 85% | 51% | 51% | inactive | 58% | 40% | 0.6 | inactive | 10.67 s | inactive | 60% |  |  |  |  |  |
